# Tests used:
# [1] = test system: Prototheca moriformis; assay: Growth in thiamine-free medium (thiamine auxotrophy complementation); assay type: cell-based; conditions: 2 μM precursor
# Protocol: Thiamine prototrophy in Prototheca moriformis cells was examined using expression of exogenous THIC genes. […] To dissect the lesion responsible for thiamine auxotrophy at the biochemical level, the growth of Prototheca moriformis cells under five different regimes were examined:(1) in the presence of 2 μM thiamine hydrochloride; (2) without thiamine; (3) without thiamine, but with 2 μM hydroxyethyl thiazole (THZ); […] To observe the thiamine auxotrophy of wildtype Prototheca moriformis cells, it was necessary to first deplete cells of internal thiamine reserves. To test growth in medium without thiamine, cells were first grown to stationary phase in medium containing 2 μM thiamine and then the cells were diluted to an optical density at 750 nm (OD750) of approximately 0.05 in medium without thiamine. The diluted cells were then grown once more to stationary phase in medium without thiamine (about 2-3 days). These thiamine-depleted cells were used to inoculate cultures for growth studies in medium without thiamine Wildtype cells were grown in medium with glucose as the carbon source (with or without thiamine) and positive clones with the native transit peptide Coccomyxa C-169 THIC construct were grown in medium with sucrose as the sole carbon source. […]
# [2] = test system: Dunaliella salina; conditions: 60 mg/L chloramphenicol; cited from earlier work
# [3] = test system: Haematococcus pluvialis; conditions: 5 μM norflurazon; cited from earlier work
# [4] = test system: Gonium pectorale; conditions: 0.06 ug/ml paromomycin; cited from earlier work
# [5] = test system: Closterium peracerosum-strigosum-littorale complex; conditions: 3 ug/ml phleomycin; cited from earlier work
# [6] = test system: Dunaliella tertiolecta; conditions: 1 mg/L phleomycin; cited from earlier work
# [7] = test system: Prototheca moriformis (UTEX 1435); assay: cDNA abundance by real-time RT-PCR under nitrogen depletion; assay type: cell-based; conditions: after 24 hours of culture in low nitrogen medium
# Protocol: A cDNA library was generated from Prototheca moriformis (UTEX 1435) using standard techniques. The Prototheca moriformis cells were grown for 48 hours under nitrogen replete conditions. […] After about 24 hours in culture, the nitrogen supply in the media was completely depleted. The collected samples were immediately frozen using dry ice and isopropanol. Total RNA was subsequently isolated from the frozen cell pellet samples and a portion from each sample was held in reserve for RT-PCR studies. The rest of the total RNA harvested from the samples was subjected to polyA selection. Equimolar amounts of polyA selected RNA from each condition was then pooled and used to generate a cDNA library in vector pcDNA 3.0 (Invitrogen). Roughly 1200 clones were randomly picked from the resulting pooled cDNA library and subjected to sequencing on both strands. Approximately 68 different cDNAs were selected from among these 1200 sequences and used to design cDNA-specific primers for use in real-time RT-PCR studies. RNA isolated from the cell pellet samples that were held in reserve was used as substrate in the real time RT-PCR studies using the cDNA-specific primer sets generated above. This reserved RNA was converted into cDNA and used as substrate for RT-PCR for each of the 68 gene specific primer sets. […] As discussed in the specification, nitrogen depletion/limitation is a known inducer of lipogenesis in oleaginous microorganisms. Fold increase refers to the fold increase in cDNA abundance after 24 hours of culture in low nitrogen medium.
# [8] = test system: Prototheca moriformis (UTEX 1435); assay: Steady state thioesterase mRNA level by real-time RT-PCR (promoter testing, normalized to cd189); conditions: low nitrogen medium
Molecule,Fold increased (cDNA abundance) [7],steady state C. camphora thioesterase mRNA level relative to control (C. reinhardtii beta tubulin promoter) [8],further results
"Cc1ncc(CN)c(N)n1 [PYR, 2-methyl-4-amino-5-(aminomethyl)pyrimidine]",,,thiamine pyrophosphate production / growth without thiamine with precursor [1]: can only produce thiamine pyrophosphate (TPP) if the PYR precursor is provided
O=C(N[C@H](CO)[C@H](O)c1ccc([N+](=O)[O-])cc1)C(Cl)Cl [chloramphenicol],,,propagation of untransformed cells in medium comprising the agent [2]: unable to propagate
CNc1cnn(-c2cccc(C(F)(F)F)c2)c(=O)c1Cl [norflurazon],,,propagation of untransformed cells in medium comprising the agent [3]: unable to propagate
NC[C@@H]1O[C@H](O[C@H]2[C@@H](O)[C@H](O[C@@H]3[C@@H](O)[C@H](N)C[C@H](N)[C@H]3O[C@H]3O[C@H](CO)[C@@H](O)[C@H](O)[C@H]3N)O[C@@H]2CO)[C@H](N)[C@@H](O)[C@@H]1O [paromomycin],,,propagation of untransformed cells in medium comprising the agent [4]: unable to propagate
phleomycin,,,propagation of untransformed cells in medium comprising the agent [5]: unable to propagate; propagation of untransformed cells in medium comprising the agent [6]: unable to be propagated
"Aat01-Amino acid transporter 01 promoter/5′UTR: putative nitrogen-regulated promoter/5′UTR, SEQ ID NO: 62 (nucleic acid, listed as Prototheca moriformis) DNA: CGAAGGGGTCTGCATCGATTCGCGCGGTCTGGAGGCCAGCGTGACTGCTCGCGAAAATGCTCTGCCGTGTCGGGCTCTGGCTGGGGCGGCCAGAGATCTCACCGTGCCACACGCAACTGCCGCACTCTGTGCCCGCCACCTGGCGCGCACATGCGACCTCTTCCCCGTCATACCCTCTCCTCATGTGATCTTTCCACACGAGTGACGCAGGTGCGCGGAGTGGAGGGAATCAGGACGTTTTCAAGGTACCTGCTCGAGCCGTACCAACAGCTGCCGCCCGGCAAGGAAGAGATCGAGGCAGAGATTGCCCGGCTGGAGGCCCGGATAACGGAGCTCAAGAGCAAGCTGTCCGAGTGAGACCGCCCAGGTGCACGTGTCGACTCGCTATGACATGTACTCGACACAACATGAGGAATTCATCGAATTTGTAGGAAGCGGGCATTGGTACGGGAGTGGGAAAGCGAAAAAACCTCCCTCCGGCAGTGCCATCTGCCGGAGTCGAACGTTGATAGGGTTCTCGTGACAGGGTGTGACCTCTCAGCCTTGCATCAATTAAACGCTATAGACATTATCAGTAACCGTGAATCCCGCATTGGATGCCACCCGCGCGACCATTGGGGACCTGCATTACAGATCTAGGTGAGATGACAGCGAGGCAACTTCGGCCCGCGGCCCAGCTTGCGGCGCACCAATATTGGTCACGGGAAGCCACACACCGACCATAAATGAATACTTGTAAGCTATGTCAACCGATCAATGGCGTCGAAAGTGTGCCACGAGGATCCATCTGGCGGGGCGGCGTGGCGCACAAGCGCAGTCGCAATTTCTCGGACCCATCTGACCTAGGCCCAGCGCCGCGGGAGAAATCCCCGGCGGGTCCTCCACGCAGTAACCCTAATGAGTATCGAGCGCCGACCATTTACACCATCGCCCCCGAAATCCTTCCGACATTATTATTATCTTTTAGATCTTGGAACAGACTCTGCCAACC",6.21,up to four,
"Aat04-Amino acid transporter 04 promoter/5′UTR: putative nitrogen-regulated promoter/5′UTR, SEQ ID NO: 65 (nucleic acid, listed as Prototheca moriformis) DNA: CGCGTGGAGCGGTGCGTGCGGATGCCGCGCGCCTGCCAAGGCCTTTTGTATGCCTGGCCTGGGAAGTTTCCTGACTGAAGCATCTTCAAGATGCTCTCTCACGACCAGCGACACCAACACCGTCACTTTTTGCCCCTCCTGCCGCAGGTGCCACTTTCTACTTTGACGTCTTCTCCAGGCGGTACATTGCGGGACTGAGCGCCAATTCGGCCAAGAACAGCGCTGTCGACTTGAGGAGGCAGGGGTCCGTCGACTCTGCCGAGTGACACGCCTTCGACCCGACTGTACTACGGCCTGCTGAAGAGTGGGTCTCGCCGGCCGGCGTGACCGGCCCTGTGCCCACAATCGACCATCTATTCGCTCCTTGTCATCTGGCGCCGTCAATTGCCCGCGACTTGACGGCAACTGGCTCGATCGAGTCGTATTGAAAAAGCACGTTTTGTCCTACAGGGCCGCGGTCCGTTACCAACGTGGTTCTCGTTAGGTTTTCGTCGGGCGGTGGTGCGCGAACTGTCCGATGCCATCCCGGCAAACCCCAGCAAGGTCGCCAGTCTGGTTCTGACGCAATAGAGTGCGTTTTGGGCCAGTCTAAAAATTCGTCTGGCATGACGTGGCTCCACATCGTACCCGGAGCCTGCCTTGGTAATGTGAGGCACCGGTGCCAACTCCATTATGGCAGGCATCGAGCGCGCAGGTGAGTACATGACCTTCCGTGAATTGGGAAGGCGAGCTTGTGTAACGCCTGCGATCGTGCCAGTGAGGCATCGTAAACTCAAAATATTTTGTAGAAAGTGTCTGATGCCTGGTGAGGCTGCGTAGGGCAAGGGCAAGCCCTTGGCAGATGGGTAATGGGTCCGGACCTCACAACAGCAACCCCGCGTCCCCCTTAGGGCCCCTGAGGCTCGATGGCAGGGCCAGCGAGCCCGCGGCCAAAGGGCGCCATCCCACGGTCGCCCAACGACTCCACGGGTCCTATACCTCATCTTGAATGGCACTAAAAACTATAGAATATCGGGCACTGGTGGGCGTCTGGGGTACAGCTGGCCGAGCGCAGTGGCAAACCCTAGGTCCCGCCTCAAGGGCGATTCCCGGGTCAATGACACGCAAGCAAGATCACATGGCGCGGTCCGCCTCGCGGCTCCACACCCAGGCCCTAGTTTCGCAACCCATAAATATCGCCCCGATACCATCATAAGCCAGCAAATAATTTTTTATCAGAGTTCCAAACCTCCTCAGCTGTGGGAAACCAGCCCACTCTGAACG",10.95,up to five,
"Amt02-Ammonium transporter 02 promoter/5′UTR: putative nitrogen-regulated promoter/5′UTR, SEQ ID NO: 61 (nucleic acid, listed as Prototheca moriformis) DNA: TCACCAGCGGACAAAGCACCGGTGTATCAGGTCCGTGTCATCCACTCTAAAGAGCTCGACTACGACCTACTGATGGCCCTAGATTCTTCATCAAAAACGCCTGAGACACTTGCCCAGGATTGAAACTCCCTGAAGGGACCACCAGGGGCCCTGAGTTGTTCCTTCCCCCCGTGGCGAGCTGCCAGCCAGGCTGTACCTGTGATCGGGGCTGGCGGGAAAACAGGCTTCGTGTGCTCAGGTTATGGGAGGTGCAGGACAGCTCATTAAACGCCAACAATCGCACAATTCATGGCAAGCTAATCAGTTATTTCCCATTAACGAGCTATAATTGTCCCAAAATTCTGGTCTACCGGGGGTGATCCTTCGTGTACGGGCCCTTCCCTCAACCCTAGGTATGCGCACATGCGGTCGCCGCGCAACGCGCGCGAGGGCCGAGGGTTTGGGACGGGCCGTCCCGAAATGCAGTTGCACCCGGATGCGTGGCACCTTTTTTGCGATAATTTATGCAATGGACTGCTCTGCAAAATTCTGGCTCTGTCGCCAACCCTAGGATCAGCGGTGTAGGATTTCGTAATCATTCGTCCTGATGGGGAGCTACCGACTGCCCTAGTATCAGCCCGACTGCCTGACGCCAGCGTCCACTTTTGTGCACACATTCCATTCGTGCCCAAGACATTTCATTGTGGTGCGAAGCGTCCCCAGTTACGCTCACCTGATCCCCAACCTCCTTATTGTTCTGTCGACAGAGTGGGCCCAGAGGCCGGTCGCAGCC",10.76,up to three,

# From patent US10100341B2, “Tailored oils produced from recombinant oleaginous microorganisms” (Corbion Biotech, Inc., priority 2011, dated 2018)
